Measurements from patent US10842852B2, “Methods of delivering a polypeptide molecule to Otx2 target cells using an Otx2 targeting peptide” (Centre National de la Recherche Scientifique, priority 2009, dated 2020).
“Also recorded” adds a separate entry of the source. Ends that are not written are not given here.

How the values were obtained:
retinal ganglion neurons [1] = assay: Survival of retinal ganglion neurons after NMDA injection into the eye (Brn3A mRNA, quantitative RT-PCR); assay type: in vivo, C57 B16 mice; conditions: mice, after 4 days
Description: C57 B16 mice received, in the right eye, 1 μl of injection buffer (PBS or 9‰ NaCl) containing either 1 mM of NMDA, or 1 mM of NMDA supplemented with 30 ng of the chimeric polypeptide, and in the left eye, the same volume of injection buffer, without additive.
The survival of the ganglion neurons was determined by measuring the level of expression of Brain 3A (Brn3A), a transcription factor which, in the retina, is specifically expressed in the ganglion neurons (Xiang et al., J. Neurosci., 15, 4762-4785, 1995).
After 4 days, the animals are sacrificed, the retinas are removed, and the mRNA is extracted therefrom.
The level of expression of Bm3A mRNA was determined by quantitative RT-PCR using the hypoxanthine phosphoribosyltransferase (HPRT) gene as reference gene, and the ratio between the expression of the Bm3A mRNA in the right eye and in the left eye was calculated.
The results are illustrated by FIG. 5. The additives used are indicated along the x-axis; the ratio between the amounts of Brn3A mRNA (standardized relative to the HPRT mRNA) in the right eye and in the left eye is indicated along the y-axis.

[2] = test system: plasticity of the visual cortex; assay: Ocular dominance plasticity after 4 days monocular deprivation, single-unit extracellular electrophysiology; assay type: in vivo; conditions: adult mice; for ocular dominance induced by monocular deprivation: 4 days monocular deprivation after treatment
Description: The RK-Otx2 peptide or the AA-Otx2 peptide was infused in adult mice (therefore after closing of the critical period of plasticity), as described in example 4 above. Chondroitinase-ABC, or the injection buffer (deionized water+0.1% BSA), were injected (0.4 μl for each injection) at 3 sites surrounding the visual cortex (AP lambda, LM 1.5 mm; AP lambda, 4.0 mm; AP+1.5 mm; LM 2.5 mm) at two different depths (300 and 500 μm).
After infusion of the peptides or injection of chondroitinase ABC, the mice are subjected to monocular deprivation for 4 days, and the responses to visual stimuli are then measured by single-unit extracellular electrophysiology. The electrophysiology recordings are carried out under nembutal/chlorprothixene anesthesia using standard techniques (Gordon & Stryker, J Neurosci, 16, 3274-86, 1996; Mataga et al., Neuron, 44, 1031-41, 2004). 5 to 7 single-unit recordings were carried out for each mouse, on both sides of the medial-lateral axis of the primary visual cortex, in order to cover the monocular zone and the binocular zone, and to avoid sampling biases. Cell dominance scores were assigned to the cell responses, using a 7-point classification system (Wiesel & Hubel, J Neurophysiol, 26, 978-93, 1963) (Gordon & Stryker, J Neurosci, 16, 3274-86, 1996). The ocular dominance in the binocular zone was calculated for each mouse according to a contralateral bias index (CBI), determined as follows:
(CBI): [(n1−n7)+⅔(n2−n6)+⅓(n3−n5)+N]/2N, where N=total number of cells and nx=number of cells corresponding to an ocular dominance score of x.
This weighted mean of the bias in favor of one or other eye can range from 0, for complete ipsilateral dominance, to 1, for complete contralateral dominance.

[3] = test system: GAGs of the perineuronal net associated with parvalbumin neurons; assay: Chondroitinase ABC treatment of adult mouse brain sections: WFA labeling and AP fusion protein binding; conditions: brain sections incubated 24 hours with chondroitinase ABC 2 U/ml
Description: In order to determine whether the perineuronal net associated with parvalbumin neurons was involved in the binding between AP-Nt-Otx2 and its target cells, the binding of AP-Otx2 was tested on cryostat sections of adult mouse brains fixed with methanol, and then incubated for 24 hours in the presence of chondroitinase ABC (2 U/ml) in a buffer containing 50 mM Tris [pH 8.0], 40 mM of sodium acetate, 0.1% BSA and protease inhibitors. In parallel, the sections, untreated or treated with chondroitinase ABC, were incubated with 0.01 mg/ml of Wisteria floribunda agglutinin lectin (WFA; Sigma-Aldrich), which binds to the GAGs of the perineuronal net, and which is labeled with FITC.

retinal ganglion neurons [4] = conditions: previously shown, application PCT/FR 2009/000031; cited from earlier work
[5] = test system: binding of AP-Nt-Otx2 to its target cells of the cerebral cortex; assay: Blocking of AP-Nt-Otx2 binding to cortical target cells on adult mouse brain sections; conditions: whole Otx2 1 μg/ml, peptides 2 μg/ml
Description: The interaction, with the cells of the cerebral cortex, of the AP-Otx2, AP-Nt-Otx2, AP-Hd-Otx2 and AP-HdAA-Otx2 fusion proteins ([…] a variant of AP-Nt-Otx2 in which the RK amino acid doublet has been replaced with the AA doublet), alone (culture supernatant diluted to 1/20th) or in the presence of a whole Otx2 (1 μg/ml) or of the RK-Otx2 or AA-Otx2 peptides (2 μg/ml), was tested on cryostat sections of adult mouse brains, using the protocol described in example 1 above.

[6] = test system: retinal ganglion neurons (RGCs) and bipolar cells on sections of retina; assay: Binding test of AP fusion proteins and biotinylated peptides on sections of retina; conditions: supernatants diluted to 1/20, 2 hours at room temperature, alkaline phosphatase detection
Description: The sequences encoding the human Otx2 protein or encoding the fragments tested were cloned into the vector pAPtag-5 (GenHunter), in frame with the sequence encoding alkaline phosphatase. The various constructions carried out are represented diagrammatically in FIG. 1. HEK 293 cells cultured in culture dishes 10 cm in diameter were transfected with 10 μg of each of the vectors constructed, purified beforehand, using Lipofectamine 2000 (Invitrogen) according to the manufacturer's instructions. The transfected cells were incubated for 48 hours in DMEM/F12, supplemented with 10% of fetal bovine serum (FCS). The supernatant was collected, centrifuged at 100×g for 5 minutes and stored at −80° C. This supernatant is used, without purification, for testing the binding of the chimeric proteins on sections of retina. […]
Biotinylated peptides corresponding to various fragments of the N-terminal domain+homeodomain portion of Otx2 were synthesized and the binding thereof to sections of retina, prepared as described above, was tested. The incubation of the peptides with the sections of retina was carried out under the same conditions as those described above, and then the sections bearing the bound peptides were incubated with alkaline phosphatase-labeled streptavidin, and the alkaline phosphatase activity was detected as described above.

[7] = test system: endogenous transfer of Otx2 to cells of the visual cortex; assay: Infusion of peptides into the right visual cortex of adult mice, count of cells expressing Otx2; assay type: in vivo; conditions: for number of cells expressing Otx2: adult mice, 0.25 mg/ml, 1 μl/h for 7 days into right visual cortex, infused vs control hemisphere
Description: For this purpose, the RK-Otx2 peptide (0.25 mg/ml), the AA-Otx2 peptide (0.25 mg/ml), or PBS buffer, combined with polysialic acid (0.25 mg/ml, in order to enable diffusion of the peptides and to avoid nonspecific binding thereof to neurons expressing polysialic acid at their surface), were slowly infused (1 μl/h) for 7 days into the right visual cortex of adult mice, using osmotic minipumps (Alzet 1003D, Alza) connected to stereotaxically implanted cannulas (Hensch et al., Science, 282, 1504-8, 1998; Fagiolini & Hensch, Nature, 404, 183-6, 2000). At the end of the infusion, the mice are perfused with 4% PFA, and brain sections (25 μm) are cut in order to study the localization of Otx2 and that of the RK-Otx2 peptide. Otx2 is visualized using a rat anti-Otx2 monoclonal antibody diluted to 1/200 (Sugiyama et al., Cell, 134, 508-20, 2008), followed by a donkey anti-rat antibody labeled with Alexa 488 (Molecular Probes), diluted to 1/2000. The RK-Otx2 peptide is visualized using streptavidin labeled with Cy5.
The cells expressing Otx2 were counted over a surface area of 700×350 μm encompassing layers I/II and IV of the binocular zone of the visual cortex.
It was verified, by Sytox green labeling, that the infusion had no effect in itself on the number of cells. In order to be sure that the decrease in the number of cells expressing Otx2 was not due to cell death, an infusion of this peptide was carried out according to the protocol described above, and the number of cells expressing Otx2 was measured 8 days after the end of the infusion.

[8] = test system: parvalbumin neurons of the visual cortex; assay: WFA labeling and parvalbumin expression in visual cortex after peptide infusion; assay type: in vivo; conditions: adult mice
Description: In addition, treated mouse brain frontal sections were prepared, as described in example 4 above, in order to determine the influence of the RK-Otx2 peptide on parvalbumin neurons. The sections were labeled either with WFA, as described in example 3, or using a mouse anti-parvalbumin monoclonal antibody ( 1/500, Sigma-Aldrich), which was visualized using a donkey anti-mouse antibody labeled with Cy3. The labeled cells were quantified as described in example 4.

[9] = test system: binding of AP-Nt-Otx2 to bipolar cells and ganglion cells; assay: Antagonism of AP-Nt-Otx2 binding to sections of retinas by peptides; conditions: 2 μg/ml of peptide
Description: In order to verify that the RK-Otx2 peptide indeed had the same binding specificity as AP-Nt-Otx2, the ability of the RK-Otx2 and AA-Otx2 polypeptides to antagonize the binding of AP-Nt-Otx2 was tested. The test for binding of AP-Nt-Otx2 to sections of retinas was carried out as described above, with the exception that the incubation of the supernatant containing AP-Nt-Otx2 was carried out in the presence of 2 μg/ml of the RK-Otx2 peptide or of the AA-Otx2 peptide.

CN[C@H](CC(=O)O)C(=O)O [NMDA, N-methyl-D-aspartate, reference compound]
decrease in the amount of ganglion neurons (retinal ganglion neurons [1]; 1 μl of 1 mM NMDA alone into right eye, Brn3A mRNA): approximately 60%

chondroitinase ABC
ocular dominance induced by monocular deprivation [2]: as in those treated with the chondroitinase ABC
effect of chondroitinase ABC treatment on binding of the AP fusion protein [3]: abolishes the binding of AP-Nt-Otx2
effect on GAGs of the perineuronal net (WFA labeling) [3]: destroys the GAGs of the perineuronal net

Otx2: Orthodenticle homolog 2, homeoprotein containing a bicoid-type homeodomain
protection of retinal ganglion neurons against the toxic effects of NMDA (retinal ganglion neurons [4]): protects retinal ganglion neurons against the toxic effects of N-methyl-D-aspartate (NMDA)
blocking of the binding of AP-Nt-Otx2 to its cortical target cells [5]: block the binding of AP-Nt-Otx2 to its target cells

RKQRRERTTFTRAQL (also: biotin (position not given here)) [RK-Otx2]
binding to retinal cells [6]: has the same binding specificity as the AP-Otx2 and AP-Nt-Otx2 fusion proteins; also recorded: binds, like AP-Nt-Otx2, to the ganglion and bipolar cells
blocking of the binding of AP-Nt-Otx2 to its cortical target cells [5]: block the binding of AP-Nt-Otx2 to its target cells
ocular dominance induced by monocular deprivation [2]: induces an ocular dominance
contralateral bias index (CBI) ([2]; after peptide infusion and 4 days monocular deprivation, decrease from 0.7): 0.57
amount of peptide detected in the visual cortex ([7]; 8 days after the end of infusion): only very small amounts
number of cells expressing Otx2 in the treated hemisphere ([7]; 8 days after the end of the infusion): restored to the level of that of the control hemisphere
number of cells expressing Otx2 [7]: significantly reduces the number of cells expressing Otx2
expression of the sites for the binding of WFA and of parvalbumin ([8]; after peptide infusion): decreases the expression of the sites for the binding of WFA, and also that for parvalbumin
decrease in the number of cells surrounded by sites for the binding of WFA ([8]; infused vs control hemisphere): 51.3%
decrease in the number of parvalbumin-positive cells ([8]; infused vs control hemisphere): 56.2%
blocking of the binding of AP-Nt-Otx2 to the bipolar cells and ganglion cells [9]: blocks the binding of AP-Nt-Otx2 to the bipolar cells and to the ganglion cells

AAQRRERTTFTRAQL (Targeting peptide inactive mutant) [AA-Otx2]
number of cells expressing Otx2 [7]: only a small, insignificant reduction
blocking of the binding of AP-Nt-Otx2 to the bipolar cells and ganglion cells [9]: has no effect on this binding

chimeric polypeptide: amino acids 1-97 of Otx2 (N-terminal domain and homeodomain) fused with the VP16 trans-activator domain of the herpes virus (SEQ ID NO: 4) (MLGDGDSPGPGFTPHDSAPYGALDMADFEFEQMFTDALGIDEYGG; VP16 transactivator domain)
protection of ganglion neurons against the toxic effects of NMDA (Brn3A mRNA ratio right eye/left eye) (retinal ganglion neurons [1]; 1 μl into right eye, 1 mM NMDA plus 30 ng chimeric polypeptide): effectively protects the ganglion neurons against the toxic effects of the NMDA
